For series [1], the system named is rat gastric corpus mucosa. In words: Transepithelial electrical resistance and short circuit current in Ussing chambers. The settings on record: 0.05 mM digoxin, 0.1 mM phenytoin. The procedure:
(§1) Water-jacketed reservoirs maintained chamber saline at 37° C.
(§2) In order to confirm stimulation of acid secretion by secretagogue addition and to verify the efficacy of the PPI, mucosal fluid compartment pH was recorded at intervals throughout the experiment with a manual electrode (Denver Instruments, Denver, Colo.). Ag/AgCl voltage and current electrodes were used to measure PD (potential difference) and ISC (short circuit current) approximately every five minutes for the duration of the experiment, as previously described (Hameed et al. (2004) Dig. Dis. Sci., 49:1381-1386), using two single-channel current/voltage clamps (McGrath Research and Technology). Ohm's Law was used to calculate transepithelial electrical resistance across the tissue.
Electrical parameters were monitored throughout the duration of the experiment. Tissues were maintained under open circuit conditions. […] Tissue voltage (potential difference), short circuit current, and transepithelial resistance were recorded approximately every five minutes for the duration of the experiment, by passing a one-second current pulse equal to biological current to bring the potential difference to zero using a current/voltage clamp (McGrath Research & Technology). Transepithelial resistance was calculated by dividing open circuit potential difference by short circuit current (Ohm's law).

The test system of series [2] is rat gastric corpus mucosa. In words: Transepithelial drug flux studies (3H-digoxin, 14C-phenytoin, mucosal to serosal) before and after omeprazole or DMSO. The class given is in vitro ADME. The settings on record: for Post-Omeprazole Flux Value: after 200 μM omeprazole; for Post-Omeprazole Flux Value / Post-DMSO Flux Value: corrected by TLC; for Pre-Omeprazole Flux Value: before 200 μM omeprazole; for % Increase in Flux After DMSO / Post-DMSO Flux Value / Pre-DMSO Flux Value: vehicle control tissue; for Pre-DMSO Flux Value: mean ± SEM. Here is the method: Sprague Dawley male rats weighing approximately 400 grams were sacrificed by decapitation and the stomach was quickly removed, cut along the greater curvature, and flushed of luminal contents. The serosal membrane was then stripped from the corpus region and two equal sized pieces of corpus mucosa were mounted in two separate Ussing chambers with exposed tissue areas of 1.13 cm^2. Chambers were connected to 15 mL gas-lift reservoirs filled with un-buffered saline aerated with 100% O2 and bicarbonate-buffered saline aerated with 95% O2/5% CO2 on the mucosal and serosal sides, respectively. Saline temperature was held constant at 37° C. by a jacketed water bath surrounding the reservoirs. 30 minutes at 37° C. was allowed for tissue equilibration. In paired experiments, one tissue served as (vehicle) ‘control’, and the other as omeprazole-treated ‘experimental’.
After 30 minutes of tissue equilibration time in Ussing chambers, dibutyrl cyclic AMP (dBcAMP) (Sigma) was added to a final concentration of 1 mM to the serosal fluid chambers to stimulate acid secretion. […] The addition of the isotope marked the beginning of the flux period. 150 μL or 250 μL samples were taken from the serosal fluid compartment (opposite from which the isotope was added) for liquid scintillation counting (LSC). Samples were initially taken at 30 minute intervals for 90 minutes for the ^14C-phenytoin flux or at 15 minute intervals for 75 minutes for the ^3H-digoxin flux to establish the basal permeability rate (ρmoles/min/cm^2) across the tissue. 200 μM omeprazole (Sigma) (in DMSO) was then added to the mucosal and serosal sides of one chamber and an equivalent amount of DMSO (Sigma) was also added to both sides of the control chamber. Another series of serosal fluid samples were taken for LSC at 15 or 30 minute intervals for the remaining 60 minutes of ^3H-digoxin or ^14C-phenytoin flux experiments, respectfully, to determine flux rate of the radiolabeled drugs after omeprazole addition. In all cases of fluid sampling for liquid scintillation counting, an equal amount of fresh buffered saline was added back to the serosal side to prevent hydrostatic gradients from developing across the tissue. The flux of each isotope (ρmole/min/cm^2) was determined by calculating the linear regression slope of the graph of cpm versus time, and converting cpm to picomoles after determining the specific activity of the drug in the mucosal fluid.
To observe if the omeprazole-induced leak allows for permeation of certain small molecule drugs, ^3H-digoxin was added to the mucosal fluid compartment and saline samples were taken at 15 minute intervals from the serosal fluid compartments for a 135-minute flux period. Omeprazole and/or DMSO were added to their respective tissues 75 minutes after the addition of the isotope. Radioactivity present in the serosal fluid compartment was measured as a function of time before and after the addition of omeprazole or DMSO.

Series [3] concerns rat gastric corpus mucosa. The class given is in vitro ADME. Here is the method:
Additional saline samples were taken from the mucosal and serosal fluid compartments one minute before the addition of omeprazole/DMSO and at the end of the entire flux period to allow for thin-layer chromatography (TLC) analysis of radioactivity that crossed the tissue. TLC was performed to account for the potential contribution of radiolabeled metabolites to total radioactivity crossing the epithelial barrier, in the event of drugs entering gastric epithelial cells and metabolites being effluxed. Saline samples were taken from both surfaces of the tissue to determine possible degradation of the molecule upon exposure to the mucosal surface of the tissue as well as to analyze the chemical nature of the radioactivity that crossed the tissue. […] TLC was performed on silica gel 60 plates (Kodak) by spotting very small amounts of the concentrated sample. Plates were then placed in a sandwich tank and a variety of mobile phases were employed, including butanol/acetic acid/water (120:30:50), isopropanol/water (120:30), and ethyl acetate/methanol/water (81:11:8).

For series [4] the following is noted: human, 50 micromolar. From the text: A portion of this flux is due to damage of the gastric tissue preparation during mounting in the Ussing chambers. To correct for flux due to edge damage, the flux rate was subtracted prior to omeprazole addition from the flux rate after omeprazole addition. However, the added issue of decline in cell viability over the course of any experiment, and its contribution to overall leak, still remains (this is generally observed in the modest decline in transepithelial electrical resistance over experimental running time).

The next series deals with healthy controls. In words: Sucrose leak test before and after five days of omeprazole or famotidine. The class given is in vivo, human. Here is the method: An 8 hour overnight urine sample was collected in a container with 5 ml of 10% thymol in isopropanol as antimicrobial preservative. A courier service picked up urine containers at the patient's home and delivered them to the research laboratory. Total urine volume and refractive index were measured and recorded. […] This amount of sucrose equates to the amount of sucrose which leaked from the upper GI lumen.
H-2 blockers such as PEPCID® (famotidine) also cause a GI leak. The instant study was first performed with 20 subjects, all healthy controls. Randomly 10 were put on PPIs (20 mg of omeprazole), 10 on H-2 blockers (40 mg of famotidine). These amounts are standard for acid suppression therapy. […] They were given doses of these drugs in the morning for five days. A sucrose leak test was done the night of the fifth and last day.
Therefore, a second H-2 blocker study was performed looking at leak in an n=5 group but doing evening doses of famotidine and maintaining the other aspects of the above study, with the post H-2 blocker leak test performed again the night of the 5th dose, but now only with a 4-6 hours after the 5th and final dose.

Series [5] relates to rat gastric corpus mucosa. In words: Acid secretion (mucosal fluid pH) of dB-cAMP stimulated tissue in Ussing chambers. The settings on record: Rattus norvegicus; 25 μM omeprazole, plateau; read-out: inhibition of acid secretion (no further decrease in mucosal fluid pH). The procedure:
as §1, §2
Mucosal and serosal saline pH measurements were taken at approximately five minute intervals using a manual electrode (Denver Instruments) to ensure that the tissue was secreting acid. Mucosal pH readings were also taken before and after the addition of omeprazole to document the action of omeprazole on inhibiting acid secretion. Tissue viability was confirmed at the end of each experiment by tissue exposure to 10 mM amiloride in the mucosal fluid compartment in order to inhibit short circuit current.

Series [6] deals with rat gastric corpus mucosa. In words: Transepithelial flux of 14C-labeled probes (mannitol, sucrose, polyethylene glycol) before and after PPI. As to conditions: for % Increase in Flux of 14C-[D]-mannitol: 200 μM PPI. The procedure:
In each experiment, one adult male Sprague Dawley rat was sacrificed by decapitation. The stomach was removed, flushed, and stripped of its outer serosal membrane, while being frequently moistened with chilled, unbuffered saline. Two pieces of corpus mucosa were mounted in modified Ussing chambers, with exposed tissue surface area of 1.13 cm^2. Chambers were connected to gas-lift reservoirs, with a fluid volume of 17 mL per hemichamber. The mucosal hemichamber was filled with unbuffered saline (with 17 mM glucose) and kept aerated and perfused with 100% O2 at 37° C. […] Water-jacketed reservoirs maintained chamber saline at 37° C.
KRB was adjusted to a pH of 7.3-7.4.
Unbuffered saline was gassed with 100% O2 and was used to bathe the mucosal side of the gastric mucosa.
Approximately 30 minutes after tissues were mounted in Ussing chambers, dibutyrl cyclic AMP (dB-cAMP) (Sigma, St. Louis, Mo.) was added to the serosal sides of both chambers to a concentration of 1 mM in order to stimulate acid output by the tissue.
Three experiments were performed with each PPI, examining gastric permeability to ^14C-mannitol.
Three experiments were performed at each omeprazole concentration.

For series [7] the following is noted: Kiley et al. (2007); cited from earlier work.
In another series the test system is patients. As to conditions: Wilde et al. (1994); cited from earlier work.

As for `O=C1NC(=O)C(c2ccccc2)(c2ccccc2)N1` [phenytoin], the “effect of the probe drug itself on transepithelial electrical resistance or short circuit current” value in series [1] is “not themselves exerting an effect”. In series [2] (0.1 mM probe, 200 μM omeprazole, listed as 14C-Phenytoin), the “% Increase in Flux After Omeprazole” value is reported as 54.4% ± 7.7%. Further, the “% Increase in Flux After Omeprazole” value in [2] (0.1 mM probe, 200 μM omeprazole, listed as 14C-phenytoin) is reported as 54.4%. In addition, in series [2] (0.1 mM probe), the “Post-Omeprazole Flux Value” is recorded as 119.4 ± 12.9 ρmole/min/cm^2, the “% Increase in Flux After DMSO” value was 69.3% and the “Post-DMSO Flux Value” is on record as 120.0 ± 14.7 ρmole/min/cm^2. Also, in series [2] (0.1 mM probe, 3 experiments), the “Pre-Omeprazole Flux Value” is given as 78.3 ± 11.4 ρmole/min/cm^2 and the “Pre-DMSO Flux Value” was 71.9 ± 9.8 ρmole/min/cm^2. The “% Increase in Flux After DMSO” value in series [2] (0.1 mM probe, listed as 14C-Phenytoin) is 69.3% ± 13.9%. Besides, in series [3], the “metabolic breakdown on crossing the gastric mucosa” value is listed as “no metabolic breakdown”. Besides, the “co-migration of serosal radioactivity with pure phenytoin standard” value in series [3] (male, Sprague Dawley, rat, 0.1 mM) was 100%.

On to `C[C@H]1O[C@@H](O[C@H]2[C@@H](O)C[C@H](O[C@H]3[C@@H](O)C[C@H](O[C@H]4CC[C@@]5(C)[C@H](CC[C@@H]6[C@@H]5C[C@@H](O)[C@]5(C)[C@@H](C7=CC(=O)OC7)CC[C@]65O)C4)O[C@@H]3C)O[C@@H]2C)C[C@H](O)[C@@H]1O` [digoxin], for which the “effect of the probe drug itself on transepithelial electrical resistance or short circuit current” value in series [1] was “not themselves exerting an effect”. Moreover, the “% Increase in Flux After Omeprazole” value in [2] (0.05 mM probe, 200 μM omeprazole, P<0.03 vs DMSO) is reported as 82.2%. In addition, the “% Increase in Flux After Omeprazole” value in [2] (0.05 mM probe, 200 μM omeprazole, P<0.03 vs DMSO, listed as 3H-Digoxin) is recorded as 82.2% ± 7.7%. Further, in [2] (0.05 mM probe), the “Post-Omeprazole Flux Value” is given as 9.4 ± 0.6 ρmole/min/cm^2, the “% Increase in Flux After DMSO” value turned out to be 50.9% and the “Post-DMSO Flux Value” is 7.2 ± 1.5 ρmole/min/cm^2. Moreover, in series [2] (0.05 mM probe, 4 experiments), the “Pre-Omeprazole Flux Value” is reported as 5.1 ± 0.2 ρmole/min/cm^2 and the “Pre-DMSO Flux Value” is listed as 4.8 ± 1.0 ρmole/min/cm^2. Also, the “% Increase in Flux After DMSO” value in series [2] (0.05 mM probe, listed as 3H-Digoxin) is on record as 50.9% ± 7.0%. Besides, the “increase in flux of total radioactivity (tritium) after omeprazole addition” value in series [2] (200 μM omeprazole, not corrected by TLC, SEM) was 84%. In series [2] (DMSO, not corrected by TLC), the “increase in flux of total radioactivity (tritium), vehicle control” value worked out at 50%. In addition, the “final flux of true 3H-digoxin” value in series [2] (in the presence of omeprazole, 0.05 mM digoxin) is reported as “approximately 9 picomoles/min/cm^2”. In [2] (omeprazole flux minus DMSO flux, 4 paired experiments, SEM), the “final omeprazole-dependent 3H-digoxin flux” value is listed as 1.8±0.4 picomoles/min/cm^2. Besides, in series [4], the “total gastric corpus-wide flux” value is 900 picomoles/minute.

In turn, `COc1ccc2[nH]c([S+]([O-])Cc3ncc(C)c(OC)c3C)nc2c1` (stereo not drawn) [omeprazole] yielded a pre-med sucrose leak in the series with healthy controls (baseline before medication, n=10 per group, SEM) of 42 mg. In addition, the “post med sucrose leak” value in the series on healthy controls (morning doses for five days (20 mg omeprazole or 40 mg famotidine), test night of fifth day, n=10) is reported as 212 mg. Also, the inhibition at 25 µM in series [5] was 100%. For the same compound, in series [6], the “% Increase in Flux of 14C-[D]-mannitol” value amounted to 68.72%. Moreover, the “% Increase in Flux of 14C-[D]-mannitol” value in series [6] (listed as Omeprazole) was 68.72 +/− 8.32%. Also, the “effect on transepithelial permeability at low concentrations” value in [6] (1, 5, or 10 μM omeprazole, 14C-mannitol) is “no significant effect”. Besides, in series [6] (14C-mannitol, 1-200 μM tested, plateau at 100 and 200 μM), the “concentration at which marked transepithelial permeability increase first occurred” value was 25 µM. Further, the “increase of serum levels of digoxin by omeprazole” value in series [7] is given as “more than 350%”. Moreover, in the series on patients, the patients with diarrhea is recorded as 1-3%, the patients with headache is listed as 0.5-2.4% and the patients with nausea is 0.9-2%.

A word on the inhibition: it is the percentage by which the read-out fell short of the control.

Source of the values: patent US20110046079A1, “Use of Proton Pump Inhibitors as Drug Delivery Adjuvants” (priority 2008, published 2011).
